Test results taken from US20140295425A1, “Diagnosis for Alzheimer's Disease” (The University of Birmingham, priority 2011, published 2014).

Test system: lymphocytes
Test: Two-colour microarray gene expression analysis of lymphocytes treated with rapamycin vs untreated
Format: cell-based, human
Settings: rapamycin 100 ng/ml, 24 h
Description: Two-colour microarray based gene expression analysis (Agilent Technologies) was used to identify genes that were differentially expressed in lymphocytes treated with rapamycin compared to lymphocytes that were left untreated. The microarray used was the Agilent Whole Human Genome Microarray: 4×44K.
Two parallel lymphocyte cultures were set up in RPMI medium supplemented with 10% FCS at a concentration of 1×10^6 cells per 1 ml of culture media. Phytohaemaglutinin (PHA) was added to the cultures at a final concentration of 22 μg/ml to activate the lymphocytes. Cultures were incubated for 48 hours at 37° C. in a humidified atmosphere containing 5% CO2. After 48 hours culture, one culture was treated with 100 ng/ml rapamycin, while the other untreated culture was kept as a control. After a further 24 hours, the cells of each lymphocyte culture were harvested by centrifugation.
RNA was extracted from the lymphocyte pellets using TRI Reagent® in accordance with standard protocol. To ensure that there was no DNA contamination, the RNA was treated with DNase (Qiagen) according to the manufacturer's standard protocol. RNA quality was determined by RNA nano-chip analysis using an Agilent 2100 Bioanalyser, also according to standard protocol. The RNA quality of the samples ranged from 8-10 RNA Integrity Number (RIN), indicative of good quality RNA suitable for gene expression microarray.
200 ng of RNA was converted to cDNA with the low-input quick amplification labelling kit (Agilent, 5190-2305). Spike Mix A and B were prepared separately. For each, the spike mix was thawed and vortexed, incubated at 37° C. for 5 minutes, and diluted in the provided dilution buffer (see Table 3 for dilution protocol). 2 μl of diluted spike mix A and spike mix B were added to 200 ng of RNA in a 1.5 μl volume from the rapamycin-treated and untreated lymphocytes respectively. […] The samples were incubated at 65° C. for 10 minutes, and placed on ice for 5 minutes. 4.7 μl of the cDNA master mix was added per sample, and samples incubated at 40° C. for 2 hours; 70° C. for 15 minutes; and placed on ice for 5 minutes.
The low-input quick amplification labelling kit (Agilent, 5190-2305) was used to convert the cDNA to labelled cRNA. Spike Mix A samples were added to transcription master mix prepared with Cyanine 3-CTP (green), whereas Spike Mix B samples were added to transcription master mix prepared with Cyanine 5-CTP (red). 6 μl of the transcription master mix was added per 10 μl cDNA sample, and incubated at 40° C. for 2 hours.
The cRNA was purified by standard RNeasy mini column protocol (Qiagen). The cRNA was quantified with a nanodrop spectrophotometer on the Microarray setting. The yield and specific activity of the cRNA samples were calculated as follows: […]
825 ng of labelled cRNA was added to various fragmentation components as described in Table 7, incubated at 60° C. for 30 minutes, and cooled on ice for 1 minute. 55 μl of GEx Hybridisation buffer HI-RPM was subsequently added to stop fragmentation. The samples were mixed, centrifuged at 13,000 rotations per minute (RPM) for 1 minute, and placed on ice in preparation for microarray assembly. The microarray of choice was the 4×44K Agilent Whole Human Genome Microarray. A clean gasket slide was placed into the chamber base, 100 μl of sample dispensed per well, and array placed onto the gasket slide to facilitate hybridisation. The gasket and microarray slides were clamped together and incubated at 65° C. for 17 hours.
Following hybridisation, the microarrays were washed in various wash solutions as described in Table 8. To summarise, the microarrays were removed from the hybridisation assembly and carefully separated from the gasket slide whilst fully submersed in wash buffer 1. Slides were washed for 1 minute, transferred to wash buffer 2 at 37° C. for 1 minute, and washed in acetonitrile for 10 seconds. The final wash was in stabilisation and drying solution for 30 seconds. […]

## CO[C@H]1C[C@@H]2CC[C@@H](C)[C@@](O)(O2)C(=O)C(=O)N2CCCC[C@H]2C(=O)O[C@H]([C@H](C)C[C@@H]2CC[C@@H](O)[C@H](OC)C2)CC(=O)[C@H](C)/C=C(\C)[C@@H](O)[C@@H](OC)C(=O)[C@H](C)C[C@H](C)/C=C/C=C/C=C/1C [rapamycin]
Gene ACPP (up-regulated)
  Fold change: 1.769
Gene ACSL6 (down-regulated)
  Fold change: −1.795
Gene ACSS1 (up-regulated)
  Fold change: 1.212
Gene ADAMTS15 (up-regulated)
  Fold change: 1.095
Gene ADAMTS16 (down-regulated)
  Fold change: −1.497
Gene ADH6 (up-regulated)
  Fold change: 1.177
Gene ADSSL1 (up-regulated)
  Fold change: 0.8544
Gene ALDH1A3 (up-regulated)
  Fold change: 1.792
Gene AMY1C, symbol AMY1A (includes others) (up-regulated)
  Fold change: 0.8998
Gene AP1S1 (down-regulated)
  Fold change: −1.488
Gene B3GALT4 (up-regulated)
  Fold change: 1.175
Gene B4GALT6 (up-regulated)
  Fold change: 1.07
Gene BMP7 (up-regulated)
  Fold change: 1.123
Gene CA6 (up-regulated)
  Fold change: 1.029
Gene CCL1 (up-regulated)
  Fold change: 1.135
Gene CCL2 (down-regulated)
  Fold change: −2.661
Gene CCL8 (down-regulated)
  Fold change: −2.62
Gene CCL26 (up-regulated)
  Fold change: 1.662
Gene COL8A2 (down-regulated)
  Fold change: −1.411
Gene CROT (down-regulated)
  Fold change: −2.4978
Gene CTSF (up-regulated)
  Fold change: 1.61
Gene CYP3A5 (up-regulated)
  Fold change: 1.214
Gene CYP4F3 (up-regulated)
  Fold change: 1.395
Gene CYP4V2 (up-regulated)
  Fold change: 0.8253
Gene CYP4X1 (up-regulated)
  Fold change: 1.062
Gene DCLK1 (up-regulated)
  Fold change: 1.437
Gene DHRS3 (up-regulated)
  Fold change: 0.8206
Gene DTD1 (up-regulated)
  Fold change: 1.511
Gene DUSP13 (up-regulated)
  Fold change: 1.045
Gene DYNC2LI1 (down-regulated)
  Fold change: −1.902
Gene DZIP3 (up-regulated)
  Fold change: 0.8533
Gene EGLN3 (down-regulated)
  Fold change: −1.959
Gene F9 (up-regulated)
  Fold change: 1.605
Gene FGF2 (down-regulated)
  Fold change: −2.241
Gene FGF18 (down-regulated)
  Fold change: −1.255
Gene FJX1 (down-regulated)
  Fold change: −2.328
Gene FUT9 (down-regulated)
  Fold change: −1.648
Gene GBP3 (up-regulated)
  Fold change: 0.8462
Gene GDA (up-regulated)
  Fold change: 1.596
Gene GNAL (up-regulated)
  Fold change: 0.996
Gene GPAM (down-regulated)
  Fold change: −1.231
Gene GPX6 (up-regulated)
  Fold change: 1.702
Gene HCK (down-regulated)
  Fold change: −1.403
Gene HSD17B13 (up-regulated)
  Fold change: 1.51
Gene IGBP1 (up-regulated)
  Fold change: 0.8038
Gene IGF2 (up-regulated)
  Fold change: 1.185
Gene IL1B (up-regulated)
  Fold change: 1.136
Gene IL1RN (up-regulated)
  Fold change: 1.004
Gene IL2 (down-regulated)
  Fold change: −1.407
Gene IL3 (down-regulated)
  Fold change: −2.123
Gene IL6 (down-regulated)
  Fold change: −1.3333
Gene IL10 (down-regulated)
  Fold change: −2.727
Gene INPP5E (down-regulated)
  Fold change: −1.4981
Gene INPP5K (up-regulated)
  Fold change: 0.7753
Gene JAK1 (up-regulated)
  Fold change: 0.8726
Gene LEFTY1 (up-regulated)
  Fold change: 1.067
Gene LEP (up-regulated)
  Fold change: 1.281
Gene LIPF (up-regulated)
  Fold change: 1.349
Gene LOXL3 (down-regulated)
  Fold change: −1.3654
Gene MMP9 (up-regulated)
  Fold change: 1.152
Gene MOXD1 (down-regulated)
  Fold change: −2.421
Gene MPP4 (up-regulated)
  Fold change: 0.8611
Gene MTHFR (up-regulated)
  Fold change: 0.8153
Gene OGN (up-regulated)
  Fold change: 1.567
Gene PAOX (up-regulated)
  Fold change: 0.8572
Gene PDE1A (up-regulated)
  Fold change: 1.31
Gene PDE4C (up-regulated)
  Fold change: 1.017
Gene PDK4 (up-regulated)
  Fold change: 0.8187
Gene PIM1 (up-regulated)
  Fold change: 1.101
Gene PITPNM2 (up-regulated)
  Fold change: 0.8702
Gene PLAT (up-regulated)
  Fold change: 0.8897
Gene PLB1 (up-regulated)
  Fold change: 1.566
Gene PLD1 (up-regulated)
  Fold change: 0.9334
Gene PLGLB1, symbol PLGLB1/PLGLB2 (up-regulated)
  Fold change: 0.9441
Gene PON3 (up-regulated)
  Fold change: 1.013
Gene PRKG1 (down-regulated)
  Fold change: −1.116
Gene PRODH2 (up-regulated)
  Fold change: 1.716
Gene PRSS23 (up-regulated)
  Fold change: 1.012
Gene PTGS2 (down-regulated)
  Fold change: −1.2871
Gene PYCR1 (down-regulated)
  Fold change: −1.294
Gene RAB37 (up-regulated)
  Fold change: 0.9052
Gene RAB39 (up-regulated)
  Fold change: 0.8095
Gene RND3 (up-regulated)
  Fold change: 0.9124
Gene RPS6KB1 (up-regulated)
  Fold change: 1.481
Gene RRAD (down-regulated)
  Fold change: −1.632
Gene SGTA (down-regulated)
  Fold change: −1.403
Gene SPP1 (up-regulated)
  Fold change: 1.471
Gene SPRED2 (up-regulated)
  Fold change: 0.825
Gene ST3GAL6 (up-regulated)
  Fold change: 1.175
Gene ST6GALNAC2 (down-regulated)
  Fold change: −1.242
Gene STK31 (up-regulated)
  Fold change: 1.092
Gene STS (up-regulated)
  Fold change: 0.8677
Gene TAC1 (down-regulated)
  Fold change: −1.262
Gene TDH (up-regulated)
  Fold change: 1.414
Gene THBS1 (down-regulated)
  Fold change: −1.359
Gene TRIB1 (up-regulated)
  Fold change: 1.07
Gene UBE2M (down-regulated)
  Fold change: −1.504
Gene ULK2 (up-regulated)
  Fold change: 1.069
Gene WWP2 (up-regulated)
  Fold change: 0.9105
Gene ZADH2 (up-regulated)
  Fold change: 1.005
